# Reference: patent EP4417607A1, “HETEROCYCLIC COMPOUND AS SOS1 INHIBITOR AND USES THEREOF” (Nanjing Zaiming Pharmaceutical Co., Ltd., priority 2021, dated 2023)
# Key:
# [1] = test system: H358 cells; assay: H358 cell proliferation inhibition (CellTiter-Glo luminescent cell viability assay); type: cell-based; conditions: 7 days
# Description: The effect of the compounds of the present invention on H358 cell proliferation was assessed by CellTiter-Glo luminescent cell viability assay kit method.
# H358 cells (ATCC, CRL-5807) were cultured in RPMI1640 (Hyclone, SH30256.01) complete medium containing 10% FBS (Gibco, 10100147) and 100 U/mL penicillin-streptomycin mixed solution (Gibco, 15140163). When the cells grew to 80-90%, the cells were digested, pipetted, and seeded in a 96-well plate (Corning, 4515) at 3000 cells/well (180 µL RPMI1640 complete medium), and then the 96-well plate was incubated overnight in an incubator at 37 °C with 5% CO2.
# After incubation overnight, 20 µL of a diluted test compound was added to each well using a multi-channel pipette, and the 96-well plate was placed in an incubator at 37 °C with 5% CO2 for further culture. After 7 days, 100 µL of the supernatant was pipetted and discarded. 50 µL of CellTiter-Glo® 3D Cell Viability Assay liquid was added to each well. The plate was shaken at room temperature at 450 rpm for 30 min. After the cells were completely lysed, "Luminescence" on the microplate reader was selected for plate reading. In this experiment, the cell-free group (replaced with 1640 medium) was used as the 100% inhibition group, and the compound-free group in which the cell was added was used as the 0% inhibition group.
# The inhibition percentage of H358 cell proliferation by the compounds of the present invention could be calculated by the following formula: [formula]
# (§1) IC50 values of the compounds were calculated from 8 concentration points using XLfit (ID Business Solutions Ltd., UK) software by the following formula: Y = Bottom + (Top−Bottom)/(1+10^(∧)((logIC50−X)×slopefactor)) [formula]
# Y is the inhibition percentage, X is the logarithmic value of the concentration of the test compound, Bottom is the minimum inhibition percentage, Top is the maximum inhibition percentage, and slope factor is the slope coefficient of the curve.
# [2] = test system: p-ERK pathway in H358 cells; assay: p-ERK pathway inhibition in H358 cells (Advanced phospho-ERK (Thr202/Tyr204) cellular kit, HTRF); type: cell-based; conditions: Homo sapiens, NCI-H358, 1 h compound incubation
# Description: The effect of the compounds of the present invention on H358 cell p-ERK pathway was assessed by Advanced phospho-ERK (Thr202/Tyr204) cellular kit method.
# The experimental procedures were summarized as follows: H358 cells (ATCC, CRL-5807) were cultured in RPMI1640 (ThermoFisher, A1049101) complete medium containing 10% FBS (Gibco, 10100147) and 100 U/mL penicillin-streptomycin mixed solution (Gibco, 15140163). When the coverage of the cells in the culture vessel reached 80-90%, the cells were pipetted and seeded in a 96-well plate (Corning, 3599) at 50000 cells/well (90 µL RPMI1640 complete medium), and the plate was left to stand for 5 min, cultured in an incubator at 37 °C with 5% CO2 for 6 h, replaced with a serum-free RPMI1640, and starved overnight.
# After incubation overnight, 10 µL of a diluted test compound was added to each well using a multi-channel pipette, and the 96-well plate was cultured in an incubator at 37 °C with 5% CO2 for 1 h. The supernatant was poured. The cells were washed once with PBS. 50 µL of a lysis buffer (Advanced phospho-ERK (Thr202/Tyr204) cellular kit, 64AERPEH) was added to each well. The plate was shaken at room temperature at 450 rpm for 1 h. After the cells were completely lysed, 16 µL of the supernatant was added to a 384-well plate (PE, 6007299), mixed energy donor Eu and energy acceptor D2 (D2/Eu = 1:1) were added, and the plate was incubated at room temperature for 4 h. HTRF on the microplate reader was selected for plate reading, Ratio = Signal 665 nm/Signal 620 nm × 10^4. In this experiment, the cell-free group (replaced with 1640 medium) was used as the 100% inhibition group, and the compound-free group in which the cell was added was used as the 0% inhibition group.
# The inhibition percentage of H358 cell p-ERK pathway by the compounds of the present invention could be calculated by the following formula: [formula]
# as §1
# Y is the inhibition percentage, X is the logarithmic value of the concentration of the test compound, Bottom is the minimum inhibition percentage, Top is the maximum inhibition percentage, and slope factor is the slope coefficient of the curve. The default fitted curve was used to fit the slope of the S-shaped curve to determine the IC50 value. Table 2. Results of p-ERK inhibition test by the compounds of the present invention
Compound,"IC50 ([1]; Homo sapiens, NCI-H358, 168 h) [µM]",IC50 [2] [µM],IC50 [1] [µM]
"(R)-4-((1-(3-(difluoromethyl)-2-fluorophenyl)ethyl)amino)-8-ethoxy-6-(1-(fluoromethyl)cyclopropyl)-2-methylpyrido[4,3-d]pyrimidine-7(6H)-one [Example 10]",,,0.0416
"Cc1nc(N[C@H](C)c2cccc(C(F)F)c2F)c2cn(C3(CF)CC3)c(=O)c(N)c2n1 [Example 59, (R)-8-amino-4-((1-(3-(difluoromethyl)-2-fluorophenyl)ethyl)amino)-6-(1-(fluoromethyl)cyclopropyl)-2-methylpyrido[4,3-d]pyrimidine-7(6H)-one]",0.162,,
"Cc1nc(N[C@H](C)c2cccc(C#N)c2C)c2cn(N3CCOCC3)c(=O)c(-c3ccc(N4CCCC4)nc3)c2n1 [Example 89, (R)-2-methyl-3-(1-((2-methyl-6-morpholinyl-7-oxo-8-(6-(pyrrolidin-1-yl)pyridin-3-yl)-6,7-dihydropyrido[4,3-d]pyrimidin-4-yl)amino)ethyl)benzonitrile]",0.134,,
"Cc1nc(N[C@H](C)c2cccc(C(F)F)c2F)c2cn(C3(CF)CC3)c(=O)c(OCC3CC3)c2n1 [Example 35, (R)-8-(cyclopropylmethoxy)-4-((1-(3-(difluoromethyl)-2-fluorophenyl)ethyl)amino)-6-(1-(fluoromethyl)cyclopropyl)-2-methylpyrido[4,3-d]pyrimidine-7(6H)-one]",0.154,,
"Cc1nc(N[C@H](C)c2cccc(C(F)F)c2F)c2cn(C3(CF)CC3)c(=O)c(Oc3cnn(C)c3)c2n1 [Example 60, (R)-4-((1-(3-(difluoromethyl)-2-fluorophenyl)ethyl)amino)-6-(1-(fluoromethyl)cyclopropyl)-2-methyl-8-((1-methyl-1H-pyrazol-4-yl)oxy)pyrido[4,3-d)pyrimidine-7(6H)-one]",0.162,,
"Cc1nc(N[C@H](C)c2cccc(C(F)F)c2F)c2cn(C3(CF)CC3)c(=O)c(OC(=O)N3CCN(C)CC3)c2n1 [Example 86, (R)-4-((1-(3-(difluoromethyl)-2-fluorophenyl)ethyl)amino)-6-(1-(fluoromethyl)cyclopropyl)-2-methyl-7-oxo-6,7-dihydropyrido[4,3-d]pyrimidin-8-yl-4-methylpiperazine-1-carboxylate]",0.121,,
"Cc1nc(N[C@H](C)c2cccc(C(F)F)c2F)c2cn(N3CCOCC3)c(=O)c(Oc3ccnc(C#N)c3)c2n1 [Example 118, (R)-4-((4-((1-(3-(difluoromethyl)-2-fluorophenyl)ethyl)amino)-2-methyl-6-morpholino-7-oxo-6,7-dihydropyrido[4,3-d]pyrimidin-8-yl)oxy)pyridinecarbonitrile]",0.136,,
"Cc1nc(N[C@H](C)c2cccc(C(F)F)c2F)c2cn(C3(CF)CC3)c(=O)c(-c3c(C)noc3C)c2n1 [Example 123, (R)-4-((1-(3-(difluoromethyl)-2-fluorophenyl)ethyl)amino)-8-(3,5-dimethylisoxazol-4-yl)-6-(1-(fluoromethyl)cyclopropyl)-2-methylpyrido[4,3-d]pyrimidine-7(6H)-one]",,0.111,
"Cc1nc(N[C@H](C)c2cccc(C(F)F)c2F)c2cn(C3(CF)CC3)c(=O)c(-n3cc(C#N)cn3)c2n1 [Example 101, (R)-1-(4-((1-(3-(difluoromethyl)-2-fluorophenyl)ethyl)amino)-6-(1-(fluoromethyl)cyclopropyl)-2-methyl-7-oxo-6,7-dihydropyrido[4,3-d]pyrimidin-8-yl)-1H-pyrazole-4-carbonitrile]",,0.0501,
Cc1nc(N[C@H](C)c2cccc(C(F)F)c2F)c2cn(C3(CF)CC3)c(=O)c(N3Cc4cn(C5CC5)nc4C3)c2n1 [Example 106],,0.0484,
"Cc1nc(N[C@H](C)c2cccc(C(F)F)c2F)c2cn(C3(CF)CC3)c(=O)c(N3CC(C)(C#N)C3)c2n1 [Example 75, (R)-1-(4-((1-(3-(difluoromethyl)-2-fluorophenyl)ethyl)amino)-6-(1-(fluoromethyl)cyclopropyl)-2-methyl-7-oxo-6,7-dihydropyrido[4,3-d]pyrimidin-8-yl)-3-methylazetidine-3-carbonitrile]",,0.171,

# The remaining compounds from weak to strong by IC50 ([1]; Homo sapiens, NCI-H358, 168 h), led by results:
"IC50 ([1]; Homo sapiens, NCI-H358, 168 h) [µM]",IC50 [2] [µM],IC50 [1] [µM],Compound
0.118,,,"Cc1nc(N[C@H](C)c2cccc(C#N)c2C)c2cn(C3(CF)CC3)c(=O)c(-c3ccc(C#N)nc3)c2n1 [Example 67, (R)-5-(4-((1-(3-cyano-2-methylphenyl)ethyl)amino)-6-(1-(fluoromethyl)cyclopropyl)-2-methyl-7-oxo-6,7-dihydropyrido[4,3-d]pyrimidin-8-yl)pyridinecarbonitrile]"
0.117,,,Cc1nc(N[C@H](C)c2cccc(C(F)F)c2F)c2cn(C3(CF)CC3)c(=O)c(N3CCC4(COC4)C3)c2n1 [Example 154]
0.0848,,,Cc1nc(N[C@H](C)c2cccc(C(F)F)c2F)c2cn(C3(CF)CC3)c(=O)c(NC(=O)c3ccccn3)c2n1 [Example 157]
0.0847,,,"Cc1nc(N[C@H](C)c2cccc(C#N)c2C)c2cn(C3(CF)CC3)c(=O)c(N3CCN(C)CC3)c2n1 [Example 74, (R)-3-(1-((6-(1-(fluoromethyl)cyclopropyl)-2-methyl-8-(4-methylpiperazin-1-yl)-7-oxo-6,7-dihydropyrido[4,3-d]pyrimidin-4-yl)amino)ethyl)-2-methylbenzonitrile]"
0.0747,,,"COc1c(=O)n(C2(C)CCN(C(C)=O)C2)cc2c(N[C@H](C)c3cccc(C(F)F)c3F)nc(C)nc12 (stereo partly drawn) [Example 7, 6-(1-acetyl-3-methylpyrrolidin-3-yl)-4-(((R)-1-(3-(difluoromethyl)-2-fluorophenyl)ethyl)amino)-8-methoxy-2-methylpyrido[4,3-d]pyrimidine-7(6H)-one]"
0.0699,,,"Cc1nc(N[C@H](C)c2cccc(C(F)F)c2F)c2cn(C3(CF)CC3)c(=O)c(N3CCN(C4COC4)CC34CC4)c2n1 [Example 146, (R)-4-((1-(3-(difluoromethyl)-2-fluorophenyl)ethyl)amino)-6-(1-(fluoromethyl)cyclopropyl)-2-methyl-8-(7-(oxetan-3-yl)-4,7-diazaspiro [2.5]octan-4-yl)pyrido [4,3-d]pyrimidine-7(6H)-one]"
0.0614,,,"COc1c(=O)n(C2(CF)CC2)cc2c(N[C@H](C)c3cccc(C#N)c3C)nc(C)nc12 [Example 3, (R)-3-(1-((6-(1-(fluoromethyl)cyclopropyl)-8-methoxy-2-methyl-7-oxo-6,7-dihydropyrido[4,3-d]pyrimidin-4-yl)amino)ethyl)-2-methylbenzonitrile]"
0.0407,,,"Cc1nc(N[C@H](C)c2cccc(C#N)c2C)c2cn(N3CCOCC3)c(=O)c(-c3ccc(C#N)nc3)c2n1 [Example 64, (R)-5-(4-((1-(3-cyano-2-methylphenyl)ethyl)amino)-2-methyl-6-morpholine-7-oxo-6,7-dihydropyrido[4,3-d]pyrimidin-8-yl)pyridinecarbonitrile]"
0.0356,0.0598,,"[2H][C@](C)(Nc1nc(C)nc2c(N3CCC(S(C)(=O)=O)CC3)c(=O)n(C3(CF)CC3)cc12)c1cccc(C(F)F)c1F [Example 125, (R)-4-((1-(3-(difluoromethyl)-2-fluorophenyl)ethyl-1-d)amino)-6-(1-(fluoromethyl)cyclopropyl)-2-methyl-8-(4-(methylsulfonyl)piperidin-1-yl)pyrido[4,3-d]pyrimidine-7(6H)-one]"
0.0101,0.0626,,CC(=O)N1CCN(c2c(=O)n(C3(CF)CC3)cc3c(N[C@H](C)c4cccc(C(F)F)c4F)nc(C)nc23)CC1 [Example 49]
